Laboratory results: patent US10351522B2, “Sulfonamide derivative and pharmaceutically acceptable acid addition salt thereof” (UNIVERSITY OF TSUKUBA, priority 2015, dated 2019)
Where two headings read alike, the source gives them in different places.

Assays:
[1] = biological target: T1, human OX1R (Homo sapiens, UniProt O43613); experiment: Agonist activity against OX1R: intracellular calcium (Fura-2AM, FDSS7000) in CHOOX1R cells; type: cell-based; conditions: for Emax at 0.1 µM / Emax at 1 µM / Emax at 10 µM: read-out: Response (%) OX1R
T1 construct: expressed in transfected cells; host or cells: CHO (Chinese hamster ovary) cells, line CHOOX1R, co-expressing NFAT-luciferase
T1 sequence (O43613 1-425): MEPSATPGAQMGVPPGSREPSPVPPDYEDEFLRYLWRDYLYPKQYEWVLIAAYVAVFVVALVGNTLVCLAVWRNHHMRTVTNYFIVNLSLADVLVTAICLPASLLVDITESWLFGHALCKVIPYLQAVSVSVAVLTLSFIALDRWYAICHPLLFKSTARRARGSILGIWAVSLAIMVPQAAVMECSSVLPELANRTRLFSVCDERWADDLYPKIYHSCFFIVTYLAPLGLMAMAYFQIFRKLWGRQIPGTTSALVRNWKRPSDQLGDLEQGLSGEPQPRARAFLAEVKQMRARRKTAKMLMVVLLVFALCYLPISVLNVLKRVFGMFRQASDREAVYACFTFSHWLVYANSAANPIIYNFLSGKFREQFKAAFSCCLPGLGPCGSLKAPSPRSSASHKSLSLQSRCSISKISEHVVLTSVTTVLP
Description: (§1) Evaluation of Agonist Activity Against OX1R and OX2R
(§2) NAFT-luciferase gene and human OX1R gene were constitutively expressed in CHO cell, which is a cell line derived from Chinese hamster ovary to establish a cell line (CHOOX1R) and NAFT-luciferase gene and human OX2R gene were constitutively expressed in CHO cell to establish a cell line (CHOOX2R). The respective cells were seeded in a 96-well Multiplate at 10,000 cells/well and cultured in a 5% FBS (Thermo Scientific)-added DMEM medium (Sigma-Aldrich) for 48 hr. The medium was removed, an assay buffer (20 mM HEPES (Sigma-Aldrich), Hanks' balanced salt solution (Gibco), 0.1% BSA (Sigma-Aldrich), 2.5 mM probenecid acid (Wako Pure Chemical Industries, Ltd.)) (100 μL) containing 5 μM Fura-2AM (Cayman Chemical) was added, and the cells were incubated for 60 min. The buffer containing Fura-2AM was removed, and an assay buffer (75 μL) was added. An assay buffer (25 μL) containing a test compound was added thereto to start the reaction. Changes in the intracellular calcium ion concentration due to the reaction were measured by measuring the fluorescence intensity ratio by dual wavelength excitation at 340 and 380 nm, by using FDSS7000 (Hamamatsu Photonics K.K.). The test compound was dissolved in DMSO to 10 mM, and diluted with the assay buffer to a final concentration of 10^−7M to 10^−5M (final concentration of DMSO 1%).
(§3) (As used herein, Response in Table 21 to Table 27 is a value obtained by dividing the agonist activity value, when the test compound is evaluated with orexin-A as a full-agonist (maximum value of agonist activity: 100%), at 10 μM, 1.0 μM, 0.1 μM by the agonist activity value of orexin-A.)

[2] = biological target: T2, human OX2R (Homo sapiens, UniProt O43614); experiment: Agonist activity against OX2R: intracellular calcium (Fura-2AM, FDSS7000) in CHOOX2R cells; type: cell-based; conditions: relative to orexin-A as full agonist (100%)
T2 construct: expressed in transfected cells; host or cells: CHO (Chinese hamster ovary) cells, line CHOOX2R, co-expressing NFAT-luciferase
T2 sequence (O43614 1-444): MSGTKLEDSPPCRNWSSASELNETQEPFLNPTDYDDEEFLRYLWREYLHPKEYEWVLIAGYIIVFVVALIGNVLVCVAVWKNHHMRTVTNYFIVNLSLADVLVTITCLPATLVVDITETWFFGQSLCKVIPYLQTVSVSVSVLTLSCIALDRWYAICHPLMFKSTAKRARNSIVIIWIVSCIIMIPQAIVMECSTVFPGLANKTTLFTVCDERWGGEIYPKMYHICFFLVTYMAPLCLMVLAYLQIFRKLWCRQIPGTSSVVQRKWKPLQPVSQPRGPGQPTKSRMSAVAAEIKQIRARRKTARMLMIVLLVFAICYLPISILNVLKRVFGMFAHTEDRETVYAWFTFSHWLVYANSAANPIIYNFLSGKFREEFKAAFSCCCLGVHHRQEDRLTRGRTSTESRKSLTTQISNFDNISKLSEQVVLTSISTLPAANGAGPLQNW
Description: as §1, §2, §3

[3] = 0.1 μM test compound, relative to orexin-A as full agonist (100%)
[4] = 1.0 μM test compound, relative to orexin-A as full agonist (100%)
[5] = 10 μM test compound, relative to orexin-A as full agonist (100%)
[6] = test compound 0.1 μM, relative to orexin-A as full agonist (100%)
[7] = test compound 1.0 μM, relative to orexin-A as full agonist (100%)
[8] = test compound 10 μM, relative to orexin-A as full agonist (100%)

Q: Which results are given for `COc1ccccc1Nc1cccc(NS(=O)(=O)c2cc(-c3cccc(C(=O)N(C)C)c3)ccc2OC)c1` [Example 31]?
A: Response (%) OX1R [1, 3]: <5%; Response (%) OX1R [1, 4]: <5%; Response (%) OX1R [1, 5]: <5%; Response (%) OX2R ([2]; 0.1 μM test compound): <5%; Response (%) OX2R ([2]; 1.0 μM test compound): 10%; Response (%) OX2R ([2]; 10 μM test compound): 72%

Q: For `CCCOc1ccc(-c2cccc(C(=O)N(C)C)c2)cc1S(=O)(=O)Nc1cccc(NC(=O)Nc2cccc(N(C)C)c2)c1` [Example 120], which “Response (%) OX1R” value [1, 6] is on record?
A: Its value is <5%.

Q: And the “Response (%) OX1R” value [1, 7]?
A: The value was <5%.

Q: And the “Response (%) OX1R” value [1, 8]?
A: The value was <5%.

Q: What about the “Response (%) OX2R” value ([2]; test compound 0.1 μM) of the same compound?
A: The value was 29%.

Q: And the “Response (%) OX2R” value ([2]; test compound 1.0 μM)?
A: The value was 84%.

Q: And the “Response (%) OX2R” value ([2]; test compound 10 μM)?
A: The value was 103%.

Q: Which Emax at 0.1 µM [1, 6] does the source give for `COc1ccc(-c2cccc(C(=O)N(C)C)c2)cc1S(=O)(=O)Nc1cccc(N(C)C)c1` [Example 96, 3′-(N-(3-(dimethylamino)phenyl)sulfamoyl)-4′-methoxy-N,N-dimethyl-[1,1′-biphenyl]-3-carboxamide] here?
A: Its Emax at 0.1 µM is < 5%.

Q: What about the Emax at 1 µM [1, 7] of the same compound?
A: The Emax at 1 µM was < 5%.

Q: And the Emax at 10 µM [1, 8]?
A: Its Emax at 10 µM is < 5%.

Q: And the “Response (%) OX2R” value ([2]; test compound 0.1 μM)?
A: The value was <5%.

Q: What about the “Response (%) OX2R” value ([2]; test compound 1.0 μM) of the same compound?
A: The value was <5%.

Q: And the “Response (%) OX2R” value ([2]; test compound 10 μM)?
A: Its value is 67%.

Q: With `COc1ccc(-c2cccc(C(=O)N(C)C)c2)cc1S(=O)(=O)Nc1cccc(N2CCN(c3ccc(N(C)C)cc3)C2=O)c1` [Example 131] as the compound, how does the “Response (%) OX1R” value [1, 6] read?
A: Its value is <5%.

Q: And the “Response (%) OX1R” value [1, 7]?
A: The value was <5%.

Q: What about the “Response (%) OX1R” value [1, 8] of the same compound?
A: Its value is 18%.

Q: And the “Response (%) OX2R” value ([2]; test compound 0.1 μM)?
A: Its value is 43%.

Q: And the “Response (%) OX2R” value ([2]; test compound 1.0 μM)?
A: The value was 96%.

Q: And the “Response (%) OX2R” value ([2]; test compound 10 μM)?
A: Its value is 101%.

Q: What does the source list for `COc1ccc(-c2cccc(C(=O)N(C)C)c2)cc1S(=O)(=O)Nc1cccc(NC(=O)c2cccc(C)c2)c1` [Example 15]?
A: Response (%) OX1R [1, 3]: <5%; Response (%) OX1R [1, 4]: <5%; Response (%) OX1R [1, 5]: <5%; Response (%) OX2R ([2]; 0.1 μM test compound): 12%; Response (%) OX2R ([2]; 1.0 μM test compound): 81%; Response (%) OX2R ([2]; 10 μM test compound): 114%

Q: `COc1ccc(-c2cccc(C(=O)N(C)C)c2)cc1S(=O)(=O)Nc1cccc(NC(=O)Nc2ccc([N+](=O)[O-])cc2)c1` [Example 61] was tested. Which “Response (%) OX1R” value [1, 3] did it give?
A: The value was <5%.

Q: What about the “Response (%) OX1R” value [1, 4] of the same compound?
A: The value was <5%.

Q: What about the “Response (%) OX1R” value [1, 5] of the same compound?
A: Its value is 7%.

Q: What about the “Response (%) OX2R” value ([2]; 0.1 μM test compound) of the same compound?
A: Its value is 24%.

Q: What about the “Response (%) OX2R” value ([2]; 1.0 μM test compound) of the same compound?
A: Its value is 105%.

Q: And the “Response (%) OX2R” value ([2]; 10 μM test compound)?
A: The value was 99%.

Q: `COc1ccc(-c2cccc(C(=O)N(C)C)c2)cc1S(=O)(=O)Nc1cccc(NC(=O)c2ccc(C)cc2)c1` [Example 17] was tested. Which “Response (%) OX1R” value [1, 3] did it give?
A: Its value is <5%.

Q: And the “Response (%) OX1R” value [1, 4]?
A: The value was <5%.

Q: What about the “Response (%) OX1R” value [1, 5] of the same compound?
A: Its value is 13%.

Q: What about the “Response (%) OX2R” value ([2]; 0.1 μM test compound) of the same compound?
A: Its value is <5%.

Q: And the “Response (%) OX2R” value ([2]; 1.0 μM test compound)?
A: Its value is 9%.

Q: And the “Response (%) OX2R” value ([2]; 10 μM test compound)?
A: The value was 41%.

Q: `COc1ccc(-c2cccc(C(=O)N(C)C)c2)cc1S(=O)(=O)Nc1cccc(NC(=O)Nc2cccc(N(C)C)c2)c1OC` [Example 123, 3′-(N-(3-(3-(3-(dimethylamino)phenyl)ureido)-2-methoxyphenyl)sulfamoyl)-4′-methoxy-N,N-dimethyl-[1,1′-biphenyl]-3-carboxamide] was tested. Which Emax at 0.1 µM [1] did it give?
A: The Emax at 0.1 µM was < 5%.

Q: And the Emax at 1 µM [1]?
A: Its Emax at 1 µM is 6%.

Q: What about the Emax at 10 µM [1] of the same compound?
A: Its Emax at 10 µM is < 5%.

Q: What about the “Response (%) OX2R” value ([2]; test compound 0.1 μM) of the same compound?
A: The value was 63%.

Q: What about the “Response (%) OX2R” value ([2]; test compound 1.0 μM) of the same compound?
A: Its value is 111%.

Q: And the “Response (%) OX2R” value ([2]; test compound 10 μM)?
A: Its value is 111%.

Q: Which results are given for `COc1ccc(-c2cccc(C(=O)N(C)C)c2)cc1S(=O)(=O)Nc1ccccc1NC(=O)Nc1cccc(N(C)C)c1` [Example 121]?
A: Response (%) OX1R [1, 6]: <5%; Response (%) OX1R [1, 7]: <5%; Response (%) OX1R [1, 8]: 10%; Response (%) OX2R ([2]; test compound 0.1 μM): 7%; Response (%) OX2R ([2]; test compound 1.0 μM): 47%; Response (%) OX2R ([2]; test compound 10 μM): 104%

Q: Which “Response (%) OX1R” value [1, 3] does the source give for `COc1ccc(-c2cccc(C(=O)N(C)C)c2)cc1S(=O)(=O)Nc1cccc(NC(=O)c2ccccc2Br)c1` [Example 2] here?
A: The value was 13%.

Q: And the “Response (%) OX1R” value [1, 4]?
A: The value was 11%.

Q: What about the “Response (%) OX1R” value [1, 5] of the same compound?
A: Its value is 32%.

Q: What about the “Response (%) OX2R” value ([2]; 0.1 μM test compound) of the same compound?
A: The value was <5%.

Q: And the “Response (%) OX2R” value ([2]; 1.0 μM test compound)?
A: Its value is 26%.

Q: What about the “Response (%) OX2R” value ([2]; 10 μM test compound) of the same compound?
A: The value was 74%.

Q: Which results are given for `COc1ccc(-c2cccc(C(=O)N(C)C)c2)cc1S(=O)(=O)Nc1cccc(N2CCCN(c3ccccc3)C2=O)c1` [Example 132]?
A: Response (%) OX1R [1, 6]: <5%; Response (%) OX1R [1, 7]: <5%; Response (%) OX1R [1, 8]: 46%; Response (%) OX2R ([2]; test compound 0.1 μM): 42%; Response (%) OX2R ([2]; test compound 1.0 μM): 100%; Response (%) OX2R ([2]; test compound 10 μM): 101%
